Assays:
[1] = system: M9346A antibody; format: biochemical; settings: 1 mM additive, conditions where control without additive was 100% fragmented
Experimental: Antibody reduction was induced in a biological assay by adding cell lysate to purified monoclonal antibody. […]. Increasing amounts of CHO cell lysate were added to mimic different percentages of cell lysis, ranging from […]. Fresh NADPH was added to a concentration of 400 μM. The mixtures were incubated in a water bath at 37° C. for 1 h. Free thiols were alkylated by addition of 10% (v/v) of 50 mM N-ethyl-maleimide (NEM) solution. Samples were analyzed by non-reduced sodium dodecyl sulfate denaturing capillary electrophoresis (NR-CE-SDS).
To test the capacity for protection further, the stringency of the assay was increased. […].

[2] = Redox potential of antibody solution with media additive over a range of DTT concentrations; format: physicochemical; settings: 1 mM additive, DTT 0.34 μM to 170 μM, 37° C., 1 h
[3] = system: humanized N901 antibody; assay: Antibody disulfide reduction by CHO cell lysate (RIPA buffer), thiol/antibody by Ellman's assay; format: biochemical
Experimental: For all of the examples described below, cell damage was simulated by multiple freeze-thaw cycles of cells, by addition of RIPA buffer (50 mM Tris-HCl, pH 7.4, 1% NP-40, 0.5% sodium deoxycholate, 0.1% sodium dodecylsulfate), or by using microfluidizer. This damaged cell supernatant or lysate was then incubated with a buffered solution containing antibody with or without the anti-reduction agent being tested, following which the extent of the antibody-disulfide reduction was measured using Ellman's assay for thiol (P. W. Riddles, R. L. Blakeley, and B. Zerner, Methods Enzymol., 91, 49-60, 1983) or by non-reducing SDS protein LabChip analysis. The total thiol level present in the mixture of damaged cell supernatant/lysate was measured initially.
The effect of 1,2-naphthoquinone-4-sulfonic acid (NQS) on antibody-disulfide reduction was studied by incubating 1,2-naphthoquinone-4-sulfonic acid at several concentrations with antibody and damaged CHO lysate. The damaged CHO cell lysate was generated by the addition of 0.5 ml RIPA buffer (50 mM Tris-HCl, pH 7.4, 1% NP-40, 0.5% sodium deoxycholate, 0.1% sodium dodecylsulfate) to 100 million CHO cells. The thiol concentration in CHO cell lysate was measured by Ellman's assay as 2.1 mM.
Each sample contained pre-mixed 0.5 ml RIPA buffer (50 mM Tris-HCl, pH 7.4, 1% NP-40, 0.5% sodium deoxycholate, 0.1% sodium dodecylsulfate) with 1 mg humanized N901 antibody, with or without 1,2-naphthoquinone-4-sulfonic acid (25 micromolar, or 50 micromolar, or 100 micromolar), which was added to a cell pellet of 100 million CHO cells, and the resuspended cells were incubated at ambient temperature for 30 minutes, following which the cell debris were pelleted by centrifugation (16,000 g, 5 min). The supernatant from each sample was added to 50 microliter immobilized-Protein A beads (RepliGen) and rotated at ambient temperature for 3 hours, after which the supernatant was removed and the beads washed with PBS.
(§1) The thiol content of the immobilized antibody was determined by the addition of 0.6 ml of PBS containing 0.5 mM DTNB (Ellman's reagent) to the beads, rotation for about 10 minutes, centrifugation, and absorbance measurement of supernatant at 412 nm.
The effect of anthraquinone-2-sulfonic acid (AQS) on antibody-disulfide reduction was studied during co-incubation of anthraquinone-2-sulfonic acid with antibody and damaged CHO lysate. Each sample contained pre-mixed 1 ml RIPA buffer (50 mM Tris-HCl, pH 7.4, 1% NP-40, 0.5% sodium deoxycholate, 0.1% sodium dodecylsulfate) with 1 mg humanized N901 antibody, with or without 0.2 mM anthraquinone-2-sulfonic acid (AQS), which was added to a cell pellet of 100 million CHO cells, and the resuspended cells were incubated at ambient temperature for 30 minutes, following which the cell debris were pelleted by centrifugation (16,000 g, 5 min). The thiol concentration in CHO cell lysate was 1 mM (Ellman's assay).
as §1, with “The supernatant from each sample was added to 50 microliter immobilized-Protein A beads (RepliGen) and rotated at ambient temperature for 3 hours, after which the supernatant was removed and the beads washed with PBS. The” for “The”
In another experiment, 1 mg huN901 antibody was incubated with CHO lysate, with or without 0.4 mM anthraquinone-2-sulfonic acid for 4 hours. The mixture was then analyzed for thiol/antibody as above.
The thiol concentration in CHO cell lysate was 1 mM (Ellman's assay).
The supernatant from each sample was added to 50 microliter immobilized-Protein A beads (RepliGen) and rotated at ambient temperature for 3 hours, after which the supernatant was removed and the beads washed with PBS. […]

[4] = system: CHO cells; assay: Viability of CHO cells after 1 day treatment; settings: 0.75 mM, control 98.9%
[5] = system: M9346A antibody; format: biochemical; settings: 1 mM additive, 100 μM DTT, 37° C., 1 h; control 80%
[6] = system: humanized FOLR1 IgG1; assay: Antibody fragmentation in HCCF treated with 20% (v/v) microfluidized CHO cells, non-reducing SDS-Protein Lab Chip; format: biochemical; settings: 1 mM of each additive, 6 h; control 78% fragmentation
Experimental: The samples were quenched with 5 mM N-ethylmaleimide (NEM), purified using immobilized Protein A, and subjected to non-reducing SDS-Protein Lab Chip electrophoretic analysis.

[7] = system: humanized IgG4; assay: IgG4 disulfide reduction by CHO cell lysate, DTNB thiol assay; format: biochemical; settings: 1 mM agent, 30% v/v CHO cell lysate, 4 hours, pH 7; control 7.7
Experimental: All samples were adjusted to pH 7 and incubated with 200 μl protein A beads for 4 hours while rotating at room temperature. After the incubation the supernatant was removed and beads washed three times with 10 ml PBS. To analyze the thiol content of the protein A-bound IgG4 antibody, the beads were incubated with a 0.5 mM DTNB solution for 5 min and the absorbance of the supernatant measured at 412 nm.

[8] = system: Humanized IgG2 antibody; assay: IgG2 disulfide reduction by CHO cell lysate, DTNB thiol assay; format: biochemical; settings: 1 mM agent, 40% v/v CHO cell lysate, 5 hours, pH 7; control 0.84
Experimental: Humanized IgG2 antibody (1 mg/ml; final concentration) was incubated with 40% v/v CHO cell lysate (˜40 million cells lysed with 0.4 ml RIPA buffer and debris removed by centrifugation) in a total volume of 1 ml. The control sample was adjusted to pH 7 and rotated at RT for 5 hours with 100 μl protein A beads. […] After the incubation time of 5 hours, the supernatant was removed and the beads were washed three times with 10 ml PBS before the thiol amount of the immobilized antibody was analyzed by adding 0.5 mM DTNB and measuring the absorbance at 412 nm.

[9] = system: Humanized FOLR1 IgG1 antibody; assay: Antibody disulfide reduction by CHO cell lysate (RIPA buffer), thiol per antibody by Ellman's assay; format: biochemical; settings: 2 mM agent
Experimental: Lysates of CHO cells (˜60 million cells lysed in 0.6 ml RIPA buffer and clarified by centrifugation) were added to each of these mixtures. The pH values of all samples were adjusted to 7. […] The samples were incubated with 200 microliter immobilized-Protein A beads (RepliGen) and rotated at ambient temperature for 3 hours, after which the supernatant was removed and the beads washed with PBS. The thiol content of the immobilized antibody was determined by the addition of 0.2 ml of PBS containing 0.5 mM DTNB (Ellman's reagent) to the beads, rotation for about 10 minutes, centrifugation, and absorbance measurement of the supernatant at 412 nm.
The pH values of all samples were adjusted to 7. The samples were incubated with 200 microliter immobilized-Protein A beads (RepliGen) and rotated at ambient temperature for 3 hours, after which the supernatant was removed and the beads washed with PBS. The thiol content of the immobilized antibody was determined by the addition of 0.2 ml of PBS containing 0.5 mM DTNB (Ellman's reagent) to the beads, rotation for about 10 minutes, centrifugation, and absorbance measurement of the supernatant at 412 nm.
To test the effect of L-cystine bis(t-butyl ester) (CDBE) on protecting antibody disulfide bonds from reduction by CHO lysate, humanized FOLR1 IgG1 antibody (2 mg) was incubated with CHO lysate in RIPA buffer (0.6 ml lysate of 60 million CHO cells in 0.6 ml RIPA buffer, clarified by centrifugation) without or with 0.5 or 1 mM CDBE. The samples were rotated at ambient temperature with 200 microliter immobilized-Protein A beads (RepliGen) for 2 hours, after which the supernatant was removed and the beads washed with PBS. The thiol content of the immobilized antibody was determined by the addition of 0.2 ml of PBS containing 0.5 mM DTNB (Ellman's reagent) to the beads, centrifugation, and absorbance measurement of the supernatant at 412 nm.
The samples were rotated at ambient temperature with 200 microliter immobilized-Protein A beads (RepliGen) for 2 hours, after which the supernatant was removed and the beads washed with PBS. The thiol content of the immobilized antibody was determined by the addition of 0.2 ml of PBS containing 0.5 mM DTNB (Ellman's reagent) to the beads, centrifugation, and absorbance measurement of the supernatant at 412 nm.

[10] = system: recombinant humanized IgG1 antibody; assay: Antibody fragmentation in thawed HCCF under nitrogen or air with CDME, non-reducing SDS-Protein Lab Chip; format: biochemical
Experimental: A CHO cell culture producing recombinant humanized IgG1 antibody was subjected to centrifugation and the resulting harvest cell culture fluid (HCCF) was frozen at −80° C. […] At various time points, samples were quenched with N-ethylmaleimide (NEM), purified using immobilized Protein A, and analyzed for fragments using non-reducing SDS-Protein Lab Chip electrophoresis. […] In contrast, the sample overlayed with air became less fragmented with time, reaching a plateau of about 25% fragmentation at 20 hours.

COC(=O)[C@@H](N)CSSC[C@H](N)C(=O)OC [CDME, L-cystine dimethyl ester]
protection at increased assay stringency [1]: protective of disulfide reduction | modulation of redox potential [2]: constant redox potential across all DTT concentrations | thiol/antibody ([3]; 0.05 mM agent, 3 hours, lysate thiol 1 mM, control 5.20): 2.75 thiol/antibody | thiol/antibody ([3]; 0.1 mM agent, 3 hours, lysate thiol 1 mM, control 5.20): 1.85 thiol/antibody | thiol/antibody ([3]; 0.2 mM agent, 3 hours, lysate thiol 1 mM, control 5.20): 1.56 thiol/antibody | thiol/antibody ([3]; 0.4 mM agent alone, 4 hours, control 4.34): 1.37 thiol/antibody | thiol/antibody ([3]; 0.5 mM agent, 3 hours, lysate thiol 1 mM, control 5.20): 1.19 thiol/antibody | thiol/antibody ([3]; 0.75 mM agent, 4° C. overnight, control 2.29): 0.96 thiol/antibody | viability of CHO cells [4]: 98.9% | intact antibody [5]: 100% | fragmentation compared with no additive control [6]: much lower fragmentations | thiol groups per antibody [7]: 0.004 thiol groups per antibody | reduced thiols per antibody [8]: near-zero reduction | decrease in disulfide reduction compared to the control ([9]; 100 mM phosphate buffer pH 7, 2 hours): ~89% | thiol per antibody ([9]; 100 mM phosphate buffer pH 7, 2 hours, control 1.16): ~0.13 thiol per antibody | thiol per antibody ([9]; 3 hours, pH 7, lysate of ~40 million cells, control 0.95): about 0.02 thiol per antibody | thiol per antibody ([9]; 3 hours, pH 7, lysate of ~60 million cells, control 1.96): about 0.25 thiol per antibody | time the antibody was protected from reduction ([10]; 1 mM CDME with nitrogen): up to 20 hours | time the antibody was protected from reduction ([10]; 2 mM CDME with nitrogen): ≤ 45 h | expected protection against antibody disulfide bond reduction ([10]; combination of oxygen sparging with CDME): highly effective | fragmentation with air overlay plus agent versus air overlay alone ([10]; ~1 mM CDME with air overlay, up to 72 hours): lowered the fragmentation further throughout the course of the study

From patent US11945862B2, “Compositions and methods for antibody production” (ImmunoGen, Inc., priority 2017, dated 2024)
